From publication PMC9501377, “New Diarylamine KV10.1 Inhibitors and Their Anticancer Potential” (Pharmaceutics, 2022)

Legend:
[1] = tested on: MCF-7 cells; experiment: Cell growth by Incucyte confluence, MCF-7; format: cell-based, human; settings: 48–72 h; for reduction of proliferation of MCF-7 cells: 25 µM
Description: (§1) MCF-7 (DSMZ ACC 115) and PANC-1 (DSMZ ACC 783) cells were grown as recommended by the cell supplier at 5% CO2 and 37 °C in a humidified atmosphere. For determining cell growth, cells were seeded in 96-well culture plates (Corning, Corning, NY, USA) at a density of 10^4 cells/well. After 24 h, the compounds were added diluted in medium. Six wells per condition were used. Four images of each well were collected at 1 h intervals for 48–72 h. Two biological replicates were performed. Images were acquired using an Incucyte device (Sartorius/Essen biosciences). Cell confluence was calculated using the Incucyte software on the phase contrast images. The results are expressed as percent confluence per well normalised to the value with no compounds added.

[2] = tested on: Panc-1 cells; experiment: Cell growth by Incucyte confluence, Panc-1; format: cell-based, human; settings: 48–72 h; for reduction of proliferation of Panc-1 cells: 25 µM
Description: as §1

[3] = tested on: MCF-7 breast cancer cell line; experiment: MTS antiproliferative assay; format: cell-based; settings: Homo sapiens, MCF7, 72 h
Description: The antiproliferative activities of the compounds were evaluated on the breast cancer cell line MCF-7 (ATCC HTB-22, adherent cells isolated from a person), using an MTS (Promega, Madison, WI, USA) assay according to the manufacturer’s instructions. The MCF-7 cell line was obtained from the American Type Culture Collection (ATCC, Manassas, VA, USA). Cells were cultured in low-glucose Dulbecco’s Modified Eagle’s Medium (DMEM) (Sigma-Aldrich, St. Louis, MO, USA), supplemented with 10% fetal bovine serum (Gibco, Thermo Fisher Scientific, Waltham, MA, USA), 100 U/mL penicillin (Sigma-Aldrich, St. Louis, MO, USA), 100 µg/mL streptomycin (Sigma-Aldrich, St. Louis, MO, USA), and 2 mM L-glutamine (Sigma-Aldrich, St. Louis, MO, USA). The cell line was incubated in a 5% CO2 atmosphere at 37 °C. Cells were plated out in 96-well plates at a density of 2000 cells per well and incubated overnight. The next day, cells were treated with the indicated compounds, positive control (17-DMAG), or vehicle control (0.5% DMSO) and incubated for 72 h. […] Absorbance was measured at 492 nm using a microplate reader (Synergy 4 Hybrid; BioTek, Winooski, VT, USA). […] Statistical significance (p < 0.05) was calculated using a two-tailed Welch’s t-test between treated groups and DMSO. IC50 values are given as averages of the independent measurements and were calculated using GraphPad Prism 8.0 software (San Diego, CA, USA). […]

[4] = concentrations higher than 25 µM

| IC50 [3] | SMILES | reduction of proliferation of MCF-7 cells [1] | inhibition of growth of MCF-7 cells [1, 4] | reduction of proliferation of Panc-1 cells [2] | inhibition of growth of Panc-1 cells [2, 4] |
| --- | --- | --- | --- | --- | --- |
| 18.5 ± 1.5 µM | CCN(CC)CCOc1ccc(Nc2ccc(C(F)(F)F)cc2[N+](=O)[O-])cc1 [Compound 17a, N-(4-(2-(Diethylamino)ethoxy)phenyl)-2-nitro-4-(trifluoromethyl)aniline] | approximately half | approximately 50% | approximately half | approximately 50% |
| 11.9 ± 1 µM | CN(C)CCOc1c(Br)cc(Nc2ccc(C(F)(F)F)cc2[N+](=O)[O-])cc1Br [Compound 18b, 3,5-Dibromo-4-(2-(dimethylamino)ethoxy)-N-(2-nitro-4-(trifluoromethyl)phenyl)aniline] | approximately half | – | approximately half | – |
